What was measured:
Test in all cases: MIC by broth microdilution (NCCLS M7-A5)
[1] = test system: Enterobacter cloacae ATCC13047/CRO-R; conditions: E. cloacae ATCC13047/CRO-R
[2] = test system: Pseudomonas aeruginosa 1973E
[3] = test system: Enterobacter cloacae M4018; conditions: E. cloacae M4018
[4] = test system: Klebsiella pneumoniae CF104
[5] = test system: Enterobacter aerogenes B1; conditions: E. aerogenes B1
[6] = test system: Enterobacter cloacae B1102; conditions: E. cloacae B1102
Acinetobacter sp. J2 = test system: Acinetobacter sp. J2
[7] = test system: Pseudomonas aeruginosa MK1184
[8] = test system: Stenotrophomonas malthophilia 1AC736; conditions: Stenotrophomonas maltophilia 1AC736
Enterobacter cloacae MRW = conditions: E. cloacae MRW
Enterobacter cloacae P99 = test system: Enterobacter cloacae P99
Serratia marcescens S6 = test system: Serratia marcescens S6
[9] = test system: Enterobacter aerogenes Zayakosky; conditions: E. aerogenes Zayakosky
[10] = + compound 323 and clavulanate, 4 mg/L each
[11] = + 102 + clavulanate, 4 mg/L each
[12] = + 103 + clavulanate, 4 mg/L each
[13] = + 111 + clavulanate, 4 mg/L each
[14] = + 202 + clavulanate, 4 mg/L each
[15] = + 206 + clavulanate, 4 mg/L each
[16] = + 323 + clavulanate, 4 mg/L each
[17] = + 324 + clavulanate, 4 mg/L each

For CC1C(NC(=O)C(=NOCc2cc(=O)c(O)cn2O)c2csc(N)n2)C(=O)N1S(=O)(=O)O (centres unmarked) [Compound 1], the “Minimal Inhibitory Concentration of antibiotic” value (“Minimal Inhibitory Concentration” below) ([1]; + clavulanate at fixed 4 mg/L) was >32 mg/L, the “Minimal Inhibitory Concentration” value ([1]; + compound 206 at fixed 4 mg/L) was >32 mg/L and the “Minimal Inhibitory Concentration” value [1, 10] was 8 mg/L. The “Minimal Inhibitory Concentration” value ([1]; + compound 501 at fixed 4 mg/L) was >32 mg/L, the “Minimal Inhibitory Concentration” value ([1]; antibiotic alone) was >32 mg/L and the MIC of antibiotic [2, 11] was 2 µg/mL. The MIC of antibiotic ([2]; + 102 + sulbactam, 4 mg/L each) was 4 µg/mL, the MIC of antibiotic [2, 12] was 4 µg/mL and the MIC of antibiotic [2, 13] was 4 µg/mL. For the same compound, the MIC of antibiotic [2, 14] was 4 µg/mL, the MIC of antibiotic [2, 15] was 4 µg/mL and the MIC of antibiotic [2, 16] was 8 µg/mL. For the same compound, the MIC of antibiotic ([2]; + 323 + sulbactam, 4 mg/L each) was 4 µg/mL, the MIC of antibiotic [2, 17] was 8 µg/mL and the MIC of antibiotic ([2]; + 501 4 mg/L) was 8 µg/mL. For the same compound, the MIC of antibiotic ([2]; + clavulanate 4 mg/L) was 8 µg/mL, the MIC of antibiotic ([2]; antibiotic alone) was 16 µg/mL and the “Minimal Inhibitory Concentration” value ([3]; + clavulanate at fixed 4 mg/L) was >32 mg/L. The “Minimal Inhibitory Concentration” value ([3]; + compound 206 at fixed 4 mg/L) was 8 mg/L, the “Minimal Inhibitory Concentration” value [3, 10] was 2 mg/L and the “Minimal Inhibitory Concentration” value ([3]; + compound 501 at fixed 4 mg/L) was 16 mg/L. The “Minimal Inhibitory Concentration” value ([3]; antibiotic alone) was 32 mg/L, the MIC of antibiotic [4, 11] was 1 µg/mL and the MIC of antibiotic ([4]; + 102 + sulbactam, 4 mg/L each) was 1 µg/mL. For the same compound, the MIC of antibiotic [4, 12] was 0.5 µg/mL, the MIC of antibiotic [4, 13] was <0.06 µg/mL and the MIC of antibiotic [4, 14] was 2 µg/mL. The MIC of antibiotic [4, 15] was 0.25 µg/mL, the MIC of antibiotic [4, 16] was 2 µg/mL and the MIC of antibiotic ([4]; + 323 + sulbactam, 4 mg/L each) was 1 µg/mL. For the same compound, the MIC of antibiotic [4, 17] was 1 µg/mL, the MIC of antibiotic ([4]; + 501 4 mg/L) was 0.5 µg/mL and the MIC of antibiotic ([4]; + clavulanate 4 mg/L) was 0.5 µg/mL. For the same compound, the MIC of antibiotic ([4]; antibiotic alone) was >32 µg/mL, the “Minimal Inhibitory Concentration” value ([5]; + clavulanate at fixed 4 mg/L) was >32 mg/L and the “Minimal Inhibitory Concentration” value ([5]; + compound 206 at fixed 4 mg/L) was 16 mg/L. The “Minimal Inhibitory Concentration” value [5, 10] was 4 mg/L, the “Minimal Inhibitory Concentration” value ([5]; + compound 501 at fixed 4 mg/L) was >32 mg/L and the “Minimal Inhibitory Concentration” value ([5]; antibiotic alone) was 32 mg/L. For the same compound, the “Minimal Inhibitory Concentration” value ([6]; + clavulanate at fixed 4 mg/L) was 32 mg/L, the “Minimal Inhibitory Concentration” value ([6]; + compound 206 at fixed 4 mg/L) was 16 mg/L and the “Minimal Inhibitory Concentration” value [6, 10] was 8 mg/L. The “Minimal Inhibitory Concentration” value ([6]; + compound 501 at fixed 4 mg/L) was 16 mg/L, the “Minimal Inhibitory Concentration” value ([6]; antibiotic alone) was >32 mg/L and the MIC of antibiotic (Acinetobacter sp. J2; Acinetobacter baumannii J2, + 102 + clavulanate, 4 mg/L each) was 4 µg/mL. For the same compound, the MIC of antibiotic (Acinetobacter sp. J2; Acinetobacter baumannii J2, + 102 + sulbactam, 4 mg/L each) was 2 µg/mL, the MIC of antibiotic (Acinetobacter sp. J2; Acinetobacter baumannii J2, + 103 + clavulanate, 4 mg/L each) was 8 µg/mL and the MIC of antibiotic (Acinetobacter sp. J2; Acinetobacter baumannii J2, + 111 + clavulanate, 4 mg/L each) was 4 µg/mL. It also gave an MIC of antibiotic (Acinetobacter sp. J2; Acinetobacter baumannii J2, + 202 + clavulanate, 4 mg/L each) of 4 µg/mL, an MIC of antibiotic (Acinetobacter sp. J2; Acinetobacter baumannii J2, + 206 + clavulanate, 4 mg/L each) of 4 µg/mL and an MIC of antibiotic (Acinetobacter sp. J2; Acinetobacter baumannii J2, + 323 + clavulanate, 4 mg/L each) of 16 µg/mL. For the same compound, the MIC of antibiotic (Acinetobacter sp. J2; Acinetobacter baumannii J2, + 323 + sulbactam, 4 mg/L each) was 1 µg/mL, the MIC of antibiotic (Acinetobacter sp. J2; Acinetobacter baumannii J2, + 324 + clavulanate, 4 mg/L each) was 32 µg/mL and the MIC of antibiotic (Acinetobacter sp. J2; Acinetobacter baumannii J2, + 501 4 mg/L) was <0.06 µg/mL. For the same compound, the MIC of antibiotic (Acinetobacter sp. J2; Acinetobacter baumannii J2, + clavulanate 4 mg/L) was >32 µg/mL, the MIC of antibiotic (Acinetobacter sp. J2; Acinetobacter baumannii J2, antibiotic alone) was >32 µg/mL and the MIC of antibiotic (Acinetobacter sp. J2; Acinetobacter sp. J2, antibiotic alone, no inhibitor) was >22 µg/mL. For the same compound, the MIC of antibiotic [7, 11] was 4 µg/mL, the MIC of antibiotic ([7]; + 102 + sulbactam, 4 mg/L each) was 32 µg/mL and the MIC of antibiotic [7, 12] was 8 µg/mL. For the same compound, the MIC of antibiotic [7, 13] was 8 µg/mL, the MIC of antibiotic [7, 14] was 8 µg/mL and the MIC of antibiotic [7, 15] was >32 µg/mL. For the same compound, the MIC of antibiotic [7, 16] was 16 µg/mL, the MIC of antibiotic ([7]; + 323 + sulbactam, 4 mg/L each) was 4 µg/mL and the MIC of antibiotic [7, 17] was 8 µg/mL. The MIC of antibiotic ([7]; + 501 4 mg/L) was >32 µg/mL, the MIC of antibiotic ([7]; + clavulanate 4 mg/L) was >32 µg/mL and the MIC of antibiotic ([7]; antibiotic alone) was >32 µg/mL. For the same compound, the MIC of antibiotic [8, 11] was 0.125 µg/mL, the MIC of antibiotic ([8]; + 102 + sulbactam, 4 mg/L each) was 2 µg/mL and the MIC of antibiotic [8, 12] was 0.125 µg/mL. It also gave an MIC of antibiotic [8, 13] of 0.125 µg/mL, an MIC of antibiotic [8, 14] of 0.125 µg/mL and an MIC of antibiotic [8, 15] of 0.125 µg/mL. For the same compound, the MIC of antibiotic [8, 16] was 0.125 µg/mL, the MIC of antibiotic ([8]; + 323 + sulbactam, 4 mg/L each) was 0.125 µg/mL and the MIC of antibiotic [8, 17] was 0.125 µg/mL. For the same compound, the MIC of antibiotic ([8]; + 501 4 mg/L) was 0.25 µg/mL, the MIC of antibiotic ([8]; + clavulanate 4 mg/L) was 0.5 µg/mL and the MIC of antibiotic ([8]; antibiotic alone) was 1 µg/mL. For the same compound, the “Minimal Inhibitory Concentration” value (Enterobacter cloacae MRW; + clavulanate at fixed 4 mg/L) was 32 mg/L, the “Minimal Inhibitory Concentration” value (Enterobacter cloacae MRW; + compound 206 at fixed 4 mg/L) was 16 mg/L and the “Minimal Inhibitory Concentration” value (Enterobacter cloacae MRW; [10]) was 4 mg/L. The “Minimal Inhibitory Concentration” value (Enterobacter cloacae MRW; + compound 501 at fixed 4 mg/L) was 32 mg/L, the “Minimal Inhibitory Concentration” value (Enterobacter cloacae MRW; antibiotic alone) was >32 mg/L and the MIC of antibiotic (Enterobacter cloacae P99; [11]) was 4 µg/mL. For the same compound, the MIC of antibiotic (Enterobacter cloacae P99; + 102 + sulbactam, 4 mg/L each) was 8 µg/mL, the MIC of antibiotic (Enterobacter cloacae P99; [12]) was 32 µg/mL and the MIC of antibiotic (Enterobacter cloacae P99; [13]) was 4 µg/mL. The MIC of antibiotic (Enterobacter cloacae P99; [14]) was 16 µg/mL, the MIC of antibiotic (Enterobacter cloacae P99; [15]) was 8 µg/mL and the MIC of antibiotic (Enterobacter cloacae P99; [16]) was 4 µg/mL. The MIC of antibiotic (Enterobacter cloacae P99; + 323 + sulbactam, 4 mg/L each) was 4 µg/mL, the MIC of antibiotic (Enterobacter cloacae P99; [17]) was 4 µg/mL and the MIC of antibiotic (Enterobacter cloacae P99; + 501 4 mg/L) was 16 µg/mL. The MIC of antibiotic (Enterobacter cloacae P99; + clavulanate 4 mg/L) was 32 µg/mL, the MIC of antibiotic (Enterobacter cloacae P99; antibiotic alone) was >32 µg/mL and the MIC of antibiotic (Serratia marcescens S6; [11]) was 0.25 µg/mL. For the same compound, the MIC of antibiotic (Serratia marcescens S6; + 102 + sulbactam, 4 mg/L each) was 0.5 µg/mL, the MIC of antibiotic (Serratia marcescens S6; [12]) was 0.25 µg/mL and the MIC of antibiotic (Serratia marcescens S6; [13]) was 0.25 µg/mL. It also gave an MIC of antibiotic (Serratia marcescens S6; [14]) of 0.5 µg/mL, an MIC of antibiotic (Serratia marcescens S6; [15]) of 4 µg/mL and an MIC of antibiotic (Serratia marcescens S6; [16]) of 0.25 µg/mL. The MIC of antibiotic (Serratia marcescens S6; + 323 + sulbactam, 4 mg/L each) was 0.5 µg/mL, the MIC of antibiotic (Serratia marcescens S6; [17]) was 1 µg/mL and the MIC of antibiotic (Serratia marcescens S6; + 501 4 mg/L) was 4 µg/mL. The MIC of antibiotic (Serratia marcescens S6; + clavulanate 4 mg/L) was 4 µg/mL, the MIC of antibiotic (Serratia marcescens S6; antibiotic alone) was >32 µg/mL and the MIC of antibiotic (Serratia marcescens S6; antibiotic alone, no inhibitor) was 1 µg/mL. For the same compound, the “Minimal Inhibitory Concentration” value ([9]; + clavulanate at fixed 4 mg/L) was >32 mg/L, the “Minimal Inhibitory Concentration” value ([9]; + compound 206 at fixed 4 mg/L) was >32 mg/L and the “Minimal Inhibitory Concentration” value [9, 10] was 16 mg/L. The “Minimal Inhibitory Concentration” value ([9]; + compound 501 at fixed 4 mg/L) was >32 mg/L and the “Minimal Inhibitory Concentration” value ([9]; antibiotic alone) was >32 mg/L.

Source: patent US9346799B2, “Useful combinations of monobactam antibiotics with beta-lactamase inhibitors” (Basilea Pharmaceutica AG, priority 2005, dated 2016)
